Values quoted from earlier work, collected in patent publication US20190320896A1, “STROKE, CONCUSSION, AND COGNITIVE DYSFUNCTION DIAGNOSTIC METHOD AND DEVICE” (priority 2018, published 2019).

Assays:
[1] = human, in vivo
[2] = after administration; metabolized by the kidneys
[3] = upon entering the circulation after bolus injection into a peripheral vein

| Compound | GLOS also affecting the aqueous chamber, cases [1] | GLOS in both chambers, patients [1] | GLOS in the aqueous chamber alone, patients [1] | GLOS in the vitreous chamber alone, patients [1] | GLOS present, always involving the vitreous chamber, patients [1] [% patients] | time to elimination through the urine [2] [h] | dye molecules bound to plasma proteins [3] |
| --- | --- | --- | --- | --- | --- | --- | --- |
| O=C([O-])CN(CCN(CC(=O)[O-])CC(=O)[O-])CCN(CC(=O)[O-])CC(=O)[O-].[Gd+3] [gadolinium, Gadolinium-DTPA] | 6 % of cases | 27 % of patients | 67 % of patients | 6 % of patients | 75 |  |  |
| O=C1OC2(c3ccc(O)cc3Oc3cc(O)ccc32)c2ccccc21 [sodium fluorescein] |  |  |  |  |  | 24 to 36 | approximately 80% |
